Reference: ChEMBL document CHEMBL5463729, “Data for DCP probe BAY 1753011” (2023)

Tests used:
Details in all cases: Compound concentration 10.0 uM
[1] = target: Activin receptor type-1-like (Homo sapiens) (UniProt P37023); assay: Inhibition of ALK1(h) at 10.0 µM in the Eurofins Kinase panel
[2] = target: Bone morphogenetic protein receptor type-1B (Homo sapiens) (UniProt O00238); assay: Inhibition of ALK6(h) at 10.0 µM in the Eurofins Kinase panel
[3] = target: Tyrosine-protein kinase ABL2 (Homo sapiens) (UniProt P42684); assay: Inhibition of Arg(h) at 10.0 µM in the Eurofins Kinase panel
[4] = target: Cytoplasmic tyrosine-protein kinase BMX (Homo sapiens) (UniProt P51813); assay: Inhibition of Bmx(h) at 10.0 µM in the Eurofins Kinase panel
[5] = target: Serine/threonine-protein kinase B-raf (Homo sapiens) (UniProt P15056); assay: Inhibition of B-Raf(h) at 10.0 µM in the Eurofins Kinase panel
[6] = target: CDK17/Cyclin-Y (Homo sapiens) (UniProt Q00537+Q8ND76); assay: Inhibition of CDK17/cyclinY(h) at 10.0 µM in the Eurofins Kinase panel; type: protein-complex assay
CDK17/Cyclin-Y (Homo sapiens), sequence (Q00537 whole entry): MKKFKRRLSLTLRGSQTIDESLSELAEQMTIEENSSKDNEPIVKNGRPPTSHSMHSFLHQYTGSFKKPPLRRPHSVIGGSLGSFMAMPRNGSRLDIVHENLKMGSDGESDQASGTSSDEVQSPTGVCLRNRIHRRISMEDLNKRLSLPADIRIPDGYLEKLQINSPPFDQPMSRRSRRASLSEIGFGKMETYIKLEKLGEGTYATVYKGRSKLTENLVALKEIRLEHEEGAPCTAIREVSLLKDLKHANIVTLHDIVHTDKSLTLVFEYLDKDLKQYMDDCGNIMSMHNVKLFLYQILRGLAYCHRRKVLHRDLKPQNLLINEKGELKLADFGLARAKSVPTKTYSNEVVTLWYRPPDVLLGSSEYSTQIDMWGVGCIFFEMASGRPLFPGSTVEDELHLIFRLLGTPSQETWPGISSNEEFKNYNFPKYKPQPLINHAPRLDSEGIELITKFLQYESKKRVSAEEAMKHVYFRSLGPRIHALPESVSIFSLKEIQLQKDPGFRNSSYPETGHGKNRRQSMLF
CDK17/Cyclin-Y (Homo sapiens), sequence (Q8ND76 2-341 partner limits assumed): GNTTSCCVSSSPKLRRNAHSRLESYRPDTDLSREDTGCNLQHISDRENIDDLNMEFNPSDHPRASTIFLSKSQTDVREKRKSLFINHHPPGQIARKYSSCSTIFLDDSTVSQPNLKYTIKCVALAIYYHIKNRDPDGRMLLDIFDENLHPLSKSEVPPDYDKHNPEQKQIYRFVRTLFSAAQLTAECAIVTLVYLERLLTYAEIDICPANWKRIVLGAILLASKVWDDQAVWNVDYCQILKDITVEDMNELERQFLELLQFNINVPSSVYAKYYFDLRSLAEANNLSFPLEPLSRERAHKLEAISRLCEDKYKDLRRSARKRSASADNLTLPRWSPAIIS

[7] = target: Serine/threonine-protein kinase 35 (Homo sapiens) (UniProt Q8TDR2); assay: Inhibition of CLIK1(h) at 10.0 µM in the Eurofins Kinase panel
[8] = target: Dual specificity protein kinase CLK3 (Homo sapiens) (UniProt P49761); assay: Inhibition of CLK3(h) at 10.0 µM in the Eurofins Kinase panel
[9] = target: Proto-oncogene tyrosine-protein kinase Src (Homo sapiens) (UniProt P12931); assay: Inhibition of cSRC(h) at 10.0 µM in the Eurofins Kinase panel
Proto-oncogene tyrosine-protein kinase Src (Homo sapiens), sequence (P12931 2-536 limits assumed): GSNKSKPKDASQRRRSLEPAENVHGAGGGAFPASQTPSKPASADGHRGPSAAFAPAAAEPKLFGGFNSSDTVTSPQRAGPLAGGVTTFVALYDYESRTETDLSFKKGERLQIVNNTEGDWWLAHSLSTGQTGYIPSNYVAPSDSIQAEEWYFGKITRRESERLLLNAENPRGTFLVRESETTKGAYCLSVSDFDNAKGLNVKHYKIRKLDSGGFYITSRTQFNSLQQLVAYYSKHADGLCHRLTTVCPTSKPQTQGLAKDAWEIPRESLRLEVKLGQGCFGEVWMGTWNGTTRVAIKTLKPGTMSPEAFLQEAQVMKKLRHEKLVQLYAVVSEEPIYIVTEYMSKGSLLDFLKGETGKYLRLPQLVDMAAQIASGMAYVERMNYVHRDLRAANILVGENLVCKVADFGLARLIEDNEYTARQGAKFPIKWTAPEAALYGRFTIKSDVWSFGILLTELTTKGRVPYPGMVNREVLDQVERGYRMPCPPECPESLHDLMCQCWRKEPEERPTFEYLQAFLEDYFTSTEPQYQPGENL

[10] = target: Dual specificity tyrosine-phosphorylation-regulated kinase 1A (Homo sapiens) (UniProt Q13627); assay: Inhibition of DYRK1A(h) at 10.0 µM in the Eurofins Kinase panel
[11] = target: Focal adhesion kinase 1 (Homo sapiens) (UniProt Q05397); assay: Inhibition of FAK(h) at 10.0 µM in the Eurofins Kinase panel
Focal adhesion kinase 1 (Homo sapiens), sequence (Q05397 2-1052 limits assumed): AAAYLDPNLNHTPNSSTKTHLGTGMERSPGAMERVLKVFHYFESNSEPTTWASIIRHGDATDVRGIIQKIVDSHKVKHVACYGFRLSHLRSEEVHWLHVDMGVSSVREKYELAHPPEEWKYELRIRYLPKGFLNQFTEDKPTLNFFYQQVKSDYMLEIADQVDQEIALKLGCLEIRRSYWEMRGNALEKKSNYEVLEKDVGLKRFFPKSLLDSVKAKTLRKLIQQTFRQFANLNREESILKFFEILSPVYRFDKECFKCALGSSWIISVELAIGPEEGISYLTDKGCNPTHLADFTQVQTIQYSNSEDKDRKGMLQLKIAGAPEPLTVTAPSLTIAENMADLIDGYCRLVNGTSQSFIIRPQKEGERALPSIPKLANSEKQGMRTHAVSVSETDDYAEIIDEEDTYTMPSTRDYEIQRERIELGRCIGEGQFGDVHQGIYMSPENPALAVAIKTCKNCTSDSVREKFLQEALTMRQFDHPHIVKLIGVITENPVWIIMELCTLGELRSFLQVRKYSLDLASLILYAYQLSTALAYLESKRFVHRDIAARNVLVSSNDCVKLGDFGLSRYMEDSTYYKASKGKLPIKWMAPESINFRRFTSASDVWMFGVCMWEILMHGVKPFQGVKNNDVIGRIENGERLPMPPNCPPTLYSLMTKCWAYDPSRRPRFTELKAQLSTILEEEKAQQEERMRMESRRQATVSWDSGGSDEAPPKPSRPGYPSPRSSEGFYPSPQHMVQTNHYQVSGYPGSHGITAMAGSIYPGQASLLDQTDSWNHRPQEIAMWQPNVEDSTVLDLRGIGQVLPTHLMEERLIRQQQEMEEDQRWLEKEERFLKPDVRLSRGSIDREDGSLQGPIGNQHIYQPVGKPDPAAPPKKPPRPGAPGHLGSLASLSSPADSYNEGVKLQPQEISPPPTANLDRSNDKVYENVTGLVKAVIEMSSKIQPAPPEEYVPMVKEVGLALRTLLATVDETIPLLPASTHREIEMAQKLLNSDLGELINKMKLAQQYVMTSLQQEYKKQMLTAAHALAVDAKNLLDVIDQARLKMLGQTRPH

[12] = target: Fibroblast growth factor receptor 1 (Homo sapiens) (UniProt P11362); assay: Inhibition of FGFR1(h) at 10.0 µM in the Eurofins Kinase panel
[13] = target: Rhodopsin kinase GRK7 (Homo sapiens) (UniProt Q8WTQ7); assay: Inhibition of GRK7(h) at 10.0 µM in the Eurofins Kinase panel
[14] = target: Serine/threonine-protein kinase LATS2 (Homo sapiens) (UniProt Q9NRM7); assay: Inhibition of LATS2(h) at 10.0 µM in the Eurofins Kinase panel
[15] = target: LIM domain kinase 1 (Homo sapiens) (UniProt P53667); assay: Inhibition of LIMK1(h) at 10.0 µM in the Eurofins Kinase panel
[16] = target: Serine/threonine-protein kinase 3 (Homo sapiens) (UniProt Q13188); assay: Inhibition of MST2(h) at 10.0 µM in the Eurofins Kinase panel
[17] = target: Serine/threonine-protein kinase PAK 2 (Homo sapiens) (UniProt Q13177); assay: Inhibition of PAK2(h) at 10.0 µM in the Eurofins Kinase panel
[18] = target: Protein kinase C delta type (Homo sapiens) (UniProt Q05655); assay: Inhibition of PKCdelta(h) at 10.0 µM in the Eurofins Kinase panel
[19] = target: Tyrosine-protein kinase FRK (Homo sapiens) (UniProt P42685); assay: Inhibition of PTK5(h) at 10.0 µM in the Eurofins Kinase panel
[20] = target: Receptor-interacting serine/threonine-protein kinase 1 (Homo sapiens) (UniProt Q13546); assay: Inhibition of RIPK1(h) at 10.0 µM in the Eurofins Kinase panel
Receptor-interacting serine/threonine-protein kinase 1 (Homo sapiens), sequence (Q13546 whole entry): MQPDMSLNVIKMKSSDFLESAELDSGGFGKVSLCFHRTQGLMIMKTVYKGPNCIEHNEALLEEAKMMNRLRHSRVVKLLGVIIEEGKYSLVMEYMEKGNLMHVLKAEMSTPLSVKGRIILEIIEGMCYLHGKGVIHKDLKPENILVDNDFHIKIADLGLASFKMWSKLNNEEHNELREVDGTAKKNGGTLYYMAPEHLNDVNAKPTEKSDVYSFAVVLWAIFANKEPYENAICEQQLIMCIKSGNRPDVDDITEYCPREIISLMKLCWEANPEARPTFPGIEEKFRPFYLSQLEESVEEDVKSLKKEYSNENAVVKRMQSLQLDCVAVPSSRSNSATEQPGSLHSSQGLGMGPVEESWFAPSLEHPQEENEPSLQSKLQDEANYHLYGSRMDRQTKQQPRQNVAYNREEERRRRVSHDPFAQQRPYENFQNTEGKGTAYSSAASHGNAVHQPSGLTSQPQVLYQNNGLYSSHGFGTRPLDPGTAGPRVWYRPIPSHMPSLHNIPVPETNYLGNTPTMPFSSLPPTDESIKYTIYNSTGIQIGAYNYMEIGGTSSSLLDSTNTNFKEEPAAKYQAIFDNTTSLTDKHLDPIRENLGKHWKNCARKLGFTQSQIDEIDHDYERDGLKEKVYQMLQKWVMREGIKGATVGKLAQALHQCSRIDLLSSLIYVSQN

[21] = target: Receptor-interacting serine/threonine-protein kinase 2 (Homo sapiens) (UniProt O43353); assay: Inhibition of RIPK2(h) at 10.0 µM in the Eurofins Kinase panel
[22] = target: Serine/threonine-protein kinase SBK1 (Homo sapiens) (UniProt Q52WX2); assay: Inhibition of SBK1(h) at 10.0 µM in the Eurofins Kinase panel
[23] = target: Serine/threonine-protein kinase PLK2 (Homo sapiens) (UniProt Q9NYY3); assay: Inhibition of Snk(h) at 10.0 µM in the Eurofins Kinase panel
[24] = target: Serine/threonine-protein kinase TAO3 (Homo sapiens) (UniProt Q9H2K8); assay: Inhibition of TAO3(h) at 10.0 µM in the Eurofins Kinase panel
[25] = target: Tau-tubulin kinase 1 (Homo sapiens) (UniProt Q5TCY1); assay: Inhibition of TTBK1(h) at 10.0 µM in the Eurofins Kinase panel
[26] = target: Serine-protein kinase ATM (Homo sapiens) (UniProt Q13315); assay: Inhibition of ATM(h) at 10.0 µM in the Eurofins Kinase panel
[27] = target: Phosphatidylinositol 5-phosphate 4-kinase type-2 alpha (Homo sapiens) (UniProt P48426); assay: Inhibition of PIP4K2a(h) at 10.0 µM in the Eurofins Kinase panel
[28] = target: 5-hydroxytryptamine receptor 2A (Homo sapiens) (UniProt P28223)
5-hydroxytryptamine receptor 2A (Homo sapiens), sequence (P28223 whole entry): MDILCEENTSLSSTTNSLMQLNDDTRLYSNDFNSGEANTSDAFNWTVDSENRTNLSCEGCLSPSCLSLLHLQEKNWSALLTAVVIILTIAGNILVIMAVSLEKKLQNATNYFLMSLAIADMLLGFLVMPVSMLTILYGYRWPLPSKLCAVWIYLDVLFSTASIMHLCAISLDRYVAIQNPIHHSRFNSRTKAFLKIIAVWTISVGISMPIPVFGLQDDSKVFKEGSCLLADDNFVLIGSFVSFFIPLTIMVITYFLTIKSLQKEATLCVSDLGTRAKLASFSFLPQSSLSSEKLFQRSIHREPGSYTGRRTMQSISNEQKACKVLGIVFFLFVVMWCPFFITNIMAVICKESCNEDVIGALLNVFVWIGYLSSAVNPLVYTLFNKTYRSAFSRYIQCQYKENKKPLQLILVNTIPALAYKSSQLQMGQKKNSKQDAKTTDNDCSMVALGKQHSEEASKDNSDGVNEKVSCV

[29] = target: D(2) dopamine receptor (Homo sapiens) (UniProt P14416)
D(2) dopamine receptor (Homo sapiens), sequence (P14416 whole entry): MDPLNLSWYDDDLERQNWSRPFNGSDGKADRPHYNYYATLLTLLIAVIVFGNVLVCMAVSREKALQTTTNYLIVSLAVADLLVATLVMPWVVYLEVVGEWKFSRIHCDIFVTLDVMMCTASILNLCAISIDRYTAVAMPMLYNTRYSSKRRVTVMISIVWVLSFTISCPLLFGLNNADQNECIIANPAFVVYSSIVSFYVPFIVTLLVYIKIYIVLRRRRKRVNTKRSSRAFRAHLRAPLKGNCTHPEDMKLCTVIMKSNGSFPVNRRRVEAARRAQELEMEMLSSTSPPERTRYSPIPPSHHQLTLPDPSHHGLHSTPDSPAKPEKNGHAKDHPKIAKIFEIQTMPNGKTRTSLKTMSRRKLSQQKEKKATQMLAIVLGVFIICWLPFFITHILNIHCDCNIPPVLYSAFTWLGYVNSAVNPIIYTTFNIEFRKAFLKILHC

[30] = target: T1, Alpha-2B adrenergic receptor (Homo sapiens) (UniProt P18089)
T1 sequence (whole entry): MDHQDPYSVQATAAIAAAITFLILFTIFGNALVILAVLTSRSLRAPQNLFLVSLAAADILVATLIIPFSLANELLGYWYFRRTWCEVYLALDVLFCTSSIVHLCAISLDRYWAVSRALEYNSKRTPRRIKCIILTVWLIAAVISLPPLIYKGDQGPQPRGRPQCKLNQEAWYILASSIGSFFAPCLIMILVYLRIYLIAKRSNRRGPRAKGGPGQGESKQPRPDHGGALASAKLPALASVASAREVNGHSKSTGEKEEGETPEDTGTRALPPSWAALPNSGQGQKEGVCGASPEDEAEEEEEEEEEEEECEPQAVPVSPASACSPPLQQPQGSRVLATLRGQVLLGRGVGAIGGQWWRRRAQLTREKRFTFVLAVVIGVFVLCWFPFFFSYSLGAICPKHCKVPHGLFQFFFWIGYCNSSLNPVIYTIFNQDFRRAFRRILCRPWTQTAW

[31] = target: Adenosine receptor A1 (Homo sapiens) (UniProt P30542)
Adenosine receptor A1 (Homo sapiens), sequence (P30542 whole entry): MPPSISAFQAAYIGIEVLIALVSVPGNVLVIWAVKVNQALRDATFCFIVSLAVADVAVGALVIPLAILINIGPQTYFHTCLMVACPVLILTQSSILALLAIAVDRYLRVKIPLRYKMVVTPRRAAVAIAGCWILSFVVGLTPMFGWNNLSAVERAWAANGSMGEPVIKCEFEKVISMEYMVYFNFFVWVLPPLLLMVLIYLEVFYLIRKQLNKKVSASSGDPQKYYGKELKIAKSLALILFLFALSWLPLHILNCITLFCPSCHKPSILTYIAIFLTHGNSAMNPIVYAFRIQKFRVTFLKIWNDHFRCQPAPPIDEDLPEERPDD

[32] = target: Beta-2 adrenergic receptor (Homo sapiens) (UniProt P07550)
Beta-2 adrenergic receptor (Homo sapiens), sequence (P07550 whole entry, looked up): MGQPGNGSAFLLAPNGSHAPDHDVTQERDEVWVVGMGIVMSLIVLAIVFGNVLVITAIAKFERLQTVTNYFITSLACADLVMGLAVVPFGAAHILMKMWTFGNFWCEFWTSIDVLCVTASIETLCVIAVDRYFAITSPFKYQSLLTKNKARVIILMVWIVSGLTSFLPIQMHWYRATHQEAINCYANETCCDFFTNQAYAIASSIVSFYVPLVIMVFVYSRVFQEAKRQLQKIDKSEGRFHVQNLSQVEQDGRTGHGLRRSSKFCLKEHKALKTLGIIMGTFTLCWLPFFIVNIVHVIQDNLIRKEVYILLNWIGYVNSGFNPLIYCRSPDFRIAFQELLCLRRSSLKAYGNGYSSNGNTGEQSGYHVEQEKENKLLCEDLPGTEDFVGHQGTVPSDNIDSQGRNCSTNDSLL

[33] = target: T1, Alpha-2B adrenergic receptor (Homo sapiens); remark: listed apart in the source

Row | Compound | inhibition [1] [%] | inhibition [2] [%] | inhibition [3] [%] | inhibition [4] [%] | inhibition [5] [%] | inhibition [6] [%] | inhibition [7] [%] | inhibition [8] [%] | inhibition [9] [%] | inhibition [10] [%] | inhibition [11] [%] | inhibition [12] [%] | inhibition [13] [%] | inhibition [14] [%] | inhibition [15] [%] | inhibition [16] [%] | inhibition [17] [%] | inhibition [18] [%] | inhibition [19] [%] | inhibition [20] [%] | further results
1 | O=c1n(Cc2cncn2-c2cccc(Cl)c2)nc(-c2ccc(Cl)cc2)n1C[C@H](O)C(F)(F)F | -1.34 | -0.99 | 2.02 | -7.7 | -2.97 | 3.78 | 7.34 | 1.4 | 0.88 | 3.54 | -5.35 | -0.06 | -3.6 | 5.08 | 0.42 | -1.52 | 1.99 | -4.61 | 0.3 | 2.04 | inhibition [21]: -2.28%; inhibition [22]: 0.97%; inhibition [23]: 0.93%; inhibition [24]: 3.07%; inhibition [25]: -6.92%; inhibition [26]: -1.92%; inhibition [27]: -2.76%; inhibition [28]: -2.02%; inhibition [29]: -8.61%; inhibition [30]: 0.1%; inhibition [31]: 8%; inhibition [32]: 0%; inhibition [33]: 2%
2 | C[C@H](O)c1nc(Cn2nc(-c3ccc(Cl)cc3)n(C[C@H](O)C(F)(F)F)c2=O)nn1-c1cccc(Cl)c1 [PECAVAPTAN] | -9.71 | -1.01 | -0.68 | -9.46 | -4.03 | 5.47 | 9.3 | -0.38 | -5.76 | 8.95 | -3.02 | 1.76 | 0.06 | 3.15 | 0.57 | -2.77 | 3.11 | 2.12 | 0.28 | 0.69 | inhibition [21]: -1.02%; inhibition [22]: -2.61%; inhibition [23]: -4.51%; inhibition [24]: 5.55%; inhibition [25]: -7.82%; inhibition [26]: 1.99%; inhibition [27]: -0.83%; inhibition [28]: 0.62%; inhibition [29]: -5.84%; inhibition [30]: 16.1%; inhibition [31]: 26%; inhibition [32]: 9%; inhibition [33]: 8%
